From US10717749B2, “Macrocyclic sulfondiimine compounds” (BAYER PHARMA AKTIENGESELLSCHAFT, priority 2015, dated 2020)
Like-named read-outs stand apart in the source and are kept apart here. Marks after values point to notes of the source that are not given here. Each block holds one compound with its values, some of them ahead of it.

Assays:
CDK2/CycE = molecular target: T1, CDK2/CycE (Homo sapiens, UniProt P24941); assay: CDK2/CycE kinase assay (Method 2a, TR-FRET, 10 μM ATP); format: biochemical
T1 construct: GST; purchased ProQinase GmbH (Freiburg, Germany); host or cells: insect cells (Sf9)
Excerpt: 2a. CDK2/CycE Kinase Assay:
CDK2/CycE-inhibitory activity of compounds of the present invention was quantified employing the CDK2/CycE TR-FRET assay as described in the following paragraphs:
Recombinant fusion proteins of GST and human CDK2 and of GST and human CycE, expressed in insect cells (Sf9) and purified by Glutathion-Sepharose affinity chromatography, were purchased from ProQinase GmbH (Freiburg, Germany). As substrate for the kinase reaction biotinylated peptide biotin-Ttds-YISPLKSPYKISEG (C-terminus in amid form) was used which can be purchased e.g. from the company JERINI Peptide Technologies (Berlin, Germany).
For the assay 50 nl of a 100 fold concentrated solution of the test compound in DMSO was pipetted into a black low volume 384 well microtiter plate (Greiner Bio-One, Frickenhausen, Germany), 2 μl of a solution of CDK2/CycE in aqueous assay buffer [50 mM Tris/HCl pH 8.0, 10 mM MgCl2, 1.0 mM dithiothreitol, 0.1 mM sodium ortho-vanadate, 0.01% (v/v) Nonidet-P40 (Sigma)] were added and the mixture was incubated for 15 min at 22° C. to allow pre-binding of the test compounds to the enzyme before the start of the kinase reaction. […] The concentration of CDK2/CycE was adjusted depending of the activity of the enzyme lot and was chosen appropriate to have the assay in the linear range, typical concentrations were in the range of 130 ng/mL. The reaction was stopped by the addition of 5 μl of a solution of TR-FRET detection reagents (0.2 μM streptavidine-XL665 [Cisbio Bioassays, Codolet, France] and 1 nM anti-RB(pSer807/pSer811)-antibody from BD Pharmingen [#558389] and 1.2 nM LANCE EU-W1024 labeled anti-mouse IgG antibody [Perkin-Elmer, product no. AD0077]) in an aqueous EDTA-solution (100 mM EDTA, 0.2% (w/v) bovine serum albumin in 100 mM HEPES pH 7.5).
The resulting mixture was incubated 1 h at 22° C. to allow the formation of complex between the phosphorylated biotinylated peptide and the detection reagents. Subsequently the amount of phosphorylated substrate was evaluated by measurement of the resonance energy transfer from the Eu-chelate to the streptavidine-XL. Therefore, the fluorescence emissions at 620 nm and 665 nm after excitation at 350 nm was measured in a TR-FRET reader, e.g. a Rubystar (BMG Labtechnologies, Offenburg, Germany) or a Viewlux (Perkin-Elmer). The ratio of the emissions at 665 nm and at […] was taken as the measure for the amount of phosphorylated substrate. The data were normalised (enzyme reaction without inhibitor=0% inhibition, all other assay components but no enzyme=100% inhibition).

[1] = molecular target: T2, human PTEFb (CDK9/Cyclin T1) (Homo sapiens, UniProt P50750); assay: Surface Plasmon Resonance PTEFb; format: binding; details: for Target resident time: 1/koff; for koff: read-out: Dissociation rate constant koff
T2 construct: purchased ProQinase, Freiburg, Germany
Excerpt: 8. Surface Plasmon Resonance PTEFb
The ability of the compounds according to the invention to bind human PTEFb may be determined using surface plasmon resonance (SPR). KD values and koff values may be measured using a Biacoret T200 instrument (GE Healthcare, Uppsala, Sweden).
For SPR measurements, recombinant human PTEFb (CDK9/Cyclin T1 recombinant human active protein kinase purchased from ProQinase, Freiburg, Germany) is immobilized using standard amine coupling (Johnsson B et al, Anal Biochem. 1991 Nov. 1; 198(2):268-77). Briefly, carboxymethylated dextran biosensor chips (CM7, GE Healthcare) are activated with N-ethyl-N′-(3-dimethylaminopropyl)-carbodiimide hydrochloride (EDC) and N-hydroxysuccinimide (NHS) according to the supplier's instructions. Human PTEFb is diluted in 1×HBS-EP+(GE Healthcare) into 30 μg/ml and injected on the activated chip surface. Subsequently, a 1:1 solution of 1 M ethanolamine-HCl (GE Healthcare) and 1×HBS-EP is injected to block unreacted groups, resulting in approximately 4000 response units (RU) of immobilized protein. A reference surface is generated by treatment with NHS-EDC and ethanolamine-HCl. Compounds are dissolved in 100% dimethylsulfoxide (DMSO, Sigma-Aldrich, Germany) to a concentration of 10 mM and subsequently diluted in running buffer (1×HBS-EP+pH 7.4 [generated from HBS-EP+Buffer 10×(GE Healthcare): 0.1 M HEPES, 1.5 M NaCl, 30 mM EDTA and 0.5% v/v Surfactant P20], 1% v/v DMSO). For kinetic measurements, four-fold serial dilutions of compound (0.39 nM to 100 nM) are injected over immobilized protein. […] Compound concentrations are injected for 60 s followed by a dissociation time of 1800 s. The resulting sensorgrams are double-referenced against the reference surface as well as against blank injections.
The double-referenced sensorgrams are fit to a simple reversible Langmuir 1:1 reaction mechanism as implemented in the Biacore® T200 evaluation software 2.0 (GE Healthcare). In cases were full compound dissociation has not occurred at the end of the dissociation phase, the Rmax parameter (response at saturation) is fit as local variable. In all other cases, Rmax is fit as global variable.

T2 sequence (P50750 whole entry): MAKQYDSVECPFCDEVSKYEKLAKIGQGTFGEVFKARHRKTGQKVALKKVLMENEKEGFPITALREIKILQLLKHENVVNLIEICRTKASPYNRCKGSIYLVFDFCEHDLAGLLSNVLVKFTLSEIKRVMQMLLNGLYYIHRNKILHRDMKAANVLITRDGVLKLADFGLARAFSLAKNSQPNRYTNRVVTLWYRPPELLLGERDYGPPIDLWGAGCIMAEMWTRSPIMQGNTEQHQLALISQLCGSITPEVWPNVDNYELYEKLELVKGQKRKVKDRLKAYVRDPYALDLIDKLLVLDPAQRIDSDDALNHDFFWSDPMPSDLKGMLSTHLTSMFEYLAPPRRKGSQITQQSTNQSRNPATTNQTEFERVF
T2 sequence (O60563 whole entry partner): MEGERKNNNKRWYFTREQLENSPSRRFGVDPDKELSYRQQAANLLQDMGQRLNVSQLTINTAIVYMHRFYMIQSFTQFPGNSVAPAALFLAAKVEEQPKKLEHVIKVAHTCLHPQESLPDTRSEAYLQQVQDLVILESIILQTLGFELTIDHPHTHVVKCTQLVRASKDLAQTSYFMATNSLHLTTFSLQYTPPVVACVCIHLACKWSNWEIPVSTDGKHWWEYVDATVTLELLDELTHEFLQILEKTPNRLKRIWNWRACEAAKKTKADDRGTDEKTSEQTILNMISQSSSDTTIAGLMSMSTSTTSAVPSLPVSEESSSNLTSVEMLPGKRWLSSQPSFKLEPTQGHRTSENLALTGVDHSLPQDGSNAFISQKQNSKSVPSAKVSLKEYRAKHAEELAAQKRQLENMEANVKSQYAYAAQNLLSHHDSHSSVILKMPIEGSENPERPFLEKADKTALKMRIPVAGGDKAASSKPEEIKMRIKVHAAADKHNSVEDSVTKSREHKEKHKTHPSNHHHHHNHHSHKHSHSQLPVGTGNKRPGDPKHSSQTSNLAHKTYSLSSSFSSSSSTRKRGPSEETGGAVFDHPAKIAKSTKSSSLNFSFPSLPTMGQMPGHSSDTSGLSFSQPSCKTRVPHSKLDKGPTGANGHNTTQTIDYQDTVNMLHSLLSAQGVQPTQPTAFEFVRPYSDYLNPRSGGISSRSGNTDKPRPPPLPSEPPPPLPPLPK

SMILES: CS(=N)(=N)Cc1cc2cc(c1)OCCCCOc1c(ccc(F)c1F)-c1nc(ncc1F)N2 [Example 6, 16,20,21-trifluoro-9-[(S-methylsulfonodiimidoyl)methyl]-2,3,4,5-tetrahydro-12H-13,17-(azeno)-11,7-(metheno)-1,6,12,14-benzodioxadiazacyclononadecine]
- IC50 (CDK2/CycE): 1430 nM
- Target resident time ([1]; 25° C., Parameters B): 9* min
- koff ([1]; 25° C., Parameters B): 0.00188 s⁻¹

SMILES: CN=S(C)(=N)Cc1cc2cc(c1)OCCCCOc1cc(F)ccc1-c1nc(ncc1F)N2 (racemic) [Example 10, (rac)-9-[(N,S-dimethylsulfonodiimidoyl)methyl]-16,20-difluoro-2,3,4,5-tetrahydro-12H-13,17-(azeno)-11,7-(metheno)-1,6,12,14-benzodioxadiazacyclononadecine]
- Target resident time ([1]; 37° C., Parameters E): 20* min
- koff ([1]; 37° C., Parameters E): 0.000833 s⁻¹

SMILES: CS(=N)(Cc1cc2cc(c1)OCCCCOc1cc(F)ccc1-c1nc(ncc1F)N2)=NC1CC1 (racemic) [Example 9, (rac)-9-[(N-cyclopropyl-S-methylsulfonodiimidoyl)methyl]-16,20-difluoro-2,3,4,5-tetrahydro-12H-13,17-(azeno)-11,7-(metheno)-1,6,12,14-benzodioxadiazacyclononadecine]
- IC50 (CDK2/CycE): 143 nM
- Target resident time ([1]; 25° C., Parameters F): 79* min
- koff ([1]; 25° C., Parameters F): 0.000211 s⁻¹

SMILES: CS(=N)(=N)Cc1cc2cc(c1)OCCCCOc1cc(F)ccc1-c1nc(ncc1F)N2 [Example 5, 16,20-difluoro-9-[(S-methylsulfonodiimidoyl)methyl]-2,3,4,5-tetrahydro-12H-13,17-(azeno)-11,7-(metheno)-1,6,12,14-benzodioxadiazacyclononadecine]
- IC50 (CDK2/CycE): 92.6 nM
- Target resident time ([1]; 25° C., Parameters C): 49 min
- koff ([1]; 25° C., Parameters C): 0.000338 s⁻¹
- Target resident time ([1]; 25° C., Parameters D): 40 min
- koff ([1]; 25° C., Parameters D): 0.000412 s⁻¹
- Target resident time ([1]; 37° C., Parameters E): 21* min
- koff ([1]; 37° C., Parameters E): 0.000809 s⁻¹

SMILES: CS(=N)(=N)Cc1cc2cc(c1)OCCCCOc1c(F)cccc1-c1nc(ncc1F)N2 [Example 7, 16,21-difluoro-9-[(S-methylsulfonodiimidoyl)methyl]-2,3,4,5-tetrahydro-12H-13,17-(azeno)-11,7-(metheno)-1,6,12,14-benzodioxadiazacyclononadecine]
- IC50 (CDK2/CycE): 1170 nM
- Target resident time ([1]; 25° C., Parameters G): 11* min
- koff ([1]; 25° C., Parameters G): 0.00154 s⁻¹

More lines, now with the values ahead:

- IC50 (CDK2/CycE): 6 nM
- Target resident time ([1]; 25° C., Parameters B): > 666 min
- koff ([1]; 25° C., Parameters B): < 2.5e-05 s⁻¹
- Target resident time ([1]; 25° C., Parameters C): > 333 min
- koff ([1]; 25° C., Parameters C): < 5e-05 s⁻¹
SMILES: CS(=N)(Cc1cc2nc(c1)OCCCOc1cc(F)ccc1-c1cc(ncc1F)N2)=NC#N (racemic) [Example 3, (rac)-[{[15,19-difluoro-3,4-dihydro-2H,11H-10,6-(azeno)-12,16-(metheno)-1,5,11,13-benzodioxadiazacyclooctadecin-8-yl]methyl}(imino)methyl-λ^6-sulfanylidene]cyanamide]

- IC50 (CDK2/CycE): 16.4 nM
- Target resident time ([1]; 25° C., Parameters A): > 333 min
- koff ([1]; 25° C., Parameters A): < 5e-05 s⁻¹
- Target resident time ([1]; 25° C., Parameters B): > 666 min
- koff ([1]; 25° C., Parameters B): < 2.5e-05 s⁻¹
SMILES: CS(=N)(=N)Cc1cc2nc(c1)OCCCOc1cc(F)ccc1-c1cc(ncc1F)N2 [Example 1, 15,19-difluoro-8-[(S-methylsulfonodiimidoyl)methyl]-3,4-dihydro-2H,11H-10,6-(azeno)-12,16-(metheno)-1,5,11,13-benzodioxadiazacyclooctadecine]

- IC50 (CDK2/CycE): 71.2 nM
- Target resident time ([1]; 25° C., Parameters G): 51* min
- koff ([1]; 25° C., Parameters G): 0.000326 s⁻¹
SMILES: CS(=N)(=N)Cc1cc2nc(c1C#N)OCCCOc1cc(F)ccc1-c1cc(ncc1F)N2 [Example 8, 15,19-difluoro-8-[(S-methylsulfonodiimidoyl)methyl]-3,4-dihydro-2H,11H-10,6-(azeno)-12,16-(metheno)-1,5,11,13-benzodioxadiazacyclooctadecine-7-carbonitrile]

- IC50 (CDK2/CycE): 37.3 nM
- koff ([1]; 25° C., Parameters B): 4.96e-05 s⁻¹
- Target resident time ([1]; 25° C., Parameters D): 70 min
- koff ([1]; 25° C., Parameters D): 0.000237 s⁻¹
SMILES: CN=S(C)(=N)Cc1cc2nc(c1)OCCCOc1cc(F)ccc1-c1cc(ncc1F)N2 (racemic) [Example 4, (rac)-8-[(N,S-dimethylsulfonodiimidoyl)methyl]-15,19-difluoro-3,4-dihydro-2H,11H-10,6-(azeno)-12,16-(metheno)-1,5,11,13-benzodioxadiazacyclooctadecine]

- IC50 (CDK2/CycE): 22.5 nM
- Target resident time ([1]; 25° C., Parameters B): > 666 min
- koff ([1]; 25° C., Parameters B): < 2.5e-05 s⁻¹
- Target resident time ([1]; 25° C., Parameters C): > 333 min
- koff ([1]; 25° C., Parameters C): < 5e-05 s⁻¹
SMILES: CS(=N)(Cc1cc2nc(c1)OCCCOc1cc(F)ccc1-c1cc(ncc1F)N2)=NCCCO (racemic) [Example 2, (rac)-3-(2-{[15,19-difluoro-3,4-dihydro-2H,11H-10,6-(azeno)-12,16-(metheno)-1,5,11,13-benzodioxadiazacyclooctadecin-8-yl]methyl}-2-methyl-2λ^6-diazathia-1,2-dien-1-yl)propan-1-ol]
